US20240109863A1, “2-PYRIDONE DERIVATIVE, AND PREPARATION METHOD THEREFOR AND PHARMACEUTICAL APPLICATION THEREOF” (KPC PHARMACEUTICALS, INC, priority 2020, published 2024)

Experiments:
THRβ = molecular target: T1, THRβ (Homo sapiens, UniProt P10828); assay: THRβ binding assay (time-resolved FRET coactivator peptide recruitment); assay type: biochemical; conditions: THRβ-LBD/RXRα, SRC2-2 coactivator peptide recruitment, 4 hours at room temperature
T1 construct: RXRα and THRβ-LBD Eu-anti-GST antibody with GST tag
T1 sequence (P10828 217-461 limits assumed, other chains not shown): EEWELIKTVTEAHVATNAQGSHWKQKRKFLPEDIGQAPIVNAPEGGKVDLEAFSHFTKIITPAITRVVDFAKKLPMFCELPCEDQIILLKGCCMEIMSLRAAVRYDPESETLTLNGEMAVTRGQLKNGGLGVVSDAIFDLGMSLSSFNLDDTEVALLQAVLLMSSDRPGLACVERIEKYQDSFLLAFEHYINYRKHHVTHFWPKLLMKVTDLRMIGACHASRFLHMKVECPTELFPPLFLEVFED
T1 sequence (P19793 whole entry partner, other chains not shown, the tested form may be a part): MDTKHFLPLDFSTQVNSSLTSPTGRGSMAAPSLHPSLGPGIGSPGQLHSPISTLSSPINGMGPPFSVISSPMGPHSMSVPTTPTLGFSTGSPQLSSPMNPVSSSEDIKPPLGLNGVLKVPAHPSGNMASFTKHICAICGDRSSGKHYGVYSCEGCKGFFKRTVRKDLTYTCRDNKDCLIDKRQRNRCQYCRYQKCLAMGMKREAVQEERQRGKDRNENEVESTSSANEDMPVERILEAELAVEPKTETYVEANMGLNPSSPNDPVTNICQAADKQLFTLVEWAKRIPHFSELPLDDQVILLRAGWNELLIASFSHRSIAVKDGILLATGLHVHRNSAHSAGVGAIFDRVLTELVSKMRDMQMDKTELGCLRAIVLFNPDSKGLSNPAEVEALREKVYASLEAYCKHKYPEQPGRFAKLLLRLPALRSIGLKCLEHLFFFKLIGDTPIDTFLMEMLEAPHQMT
Protocol: Experimental methods: In vitro analysis of the agonistic effect of compounds on THRβ was performed using time-resolved fluorescence resonance energy transfer coactivator peptide recruitment assays. The assay used biotin-SRC2-2 coactivator peptide, streptavidin-d2, RXRα and THRβ-LBD Eu-anti-GST antibody with GST tag. Eu-anti-GST antibody indirectly labeled THRβ-LBD by binding to the GST tag. Streptavidin-d2 indirectly labeled the SRC2-2 coactivator peptide by binding to the biotin tag. In the presence of RXRα, THRβ-LBD can form heterodimer THRβ-LBD/RXRα with it. […] According to the effect of different concentrations of the compound on the activity of THRβ, the agonistic ability of the compound can be evaluated.
The detailed procedure is as follows: • a. 100× reference compound or compound was prepared with DMSO, and equally diluted by 1:3. • b. 100× gradiently diluted reference compound or compound was diluted with 1× reaction buffer to 4×, which was then added to an assay plate. • c. A mixed solution of 4× THRβ-LBD and 4× RXRα was prepared with 1× reaction buffer, and added to the assay plate. • d. A mixed solution of 2× biotin-SRC2-2, 2× Eu-anti-GST, and 2× streptavidin-d2 was prepared with 1× reaction buffer, and added to the assay plate. • e. The assay plate was centrifuged at 1000 rpm for 1 min, and incubated at room temperature in the dark for 4 hours. • f.

THRα = molecular target: T2, THRα (Homo sapiens, UniProt P10827); assay: THRα binding assay (as the THRβ assay, THRβ replaced with THRα); assay type: biochemical; conditions: for EC50: THRα in place of THRβ; for THRα/β selectivity (fold): ratio of THRα EC50 to THRβ EC50
T2 construct: GST
T2 sequence (P10827 1-410 isoform P10827-2, other chains not shown): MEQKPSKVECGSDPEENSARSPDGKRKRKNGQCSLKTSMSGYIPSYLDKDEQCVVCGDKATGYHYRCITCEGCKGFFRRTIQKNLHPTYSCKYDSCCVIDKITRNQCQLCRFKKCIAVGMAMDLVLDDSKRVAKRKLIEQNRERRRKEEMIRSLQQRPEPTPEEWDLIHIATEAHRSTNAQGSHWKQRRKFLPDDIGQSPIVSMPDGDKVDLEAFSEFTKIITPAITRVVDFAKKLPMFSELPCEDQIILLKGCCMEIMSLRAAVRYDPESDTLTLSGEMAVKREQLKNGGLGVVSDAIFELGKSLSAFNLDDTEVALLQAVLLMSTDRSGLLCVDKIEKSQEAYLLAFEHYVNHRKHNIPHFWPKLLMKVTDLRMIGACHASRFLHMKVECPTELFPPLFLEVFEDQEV
T2 sequence (P19793 whole entry partner, other chains not shown): as the sequence (P19793 whole entry partner, other chains not shown, the tested form may be a part) above

SMILES	EC50 (THRβ) [nM]	EC50 (THRα) [nM]	THRα/β selectivity (fold) (THRα)
CC(C)Cn1cc(Oc2c(Cl)cc(-n3nc(C#N)c(=O)[nH]c3=O)cc2Cl)ccc1=O [Example 6, 2-(3,5-Dichloro-4-[(1-(2-methylpropyl)-6-oxo-1,6-dihydropyridin-3-yl)oxy]phenyl)-3,5-dioxo-2,3,4,5-tetrahydro-1,2,4-triazine-6-carbonitrile]	100	2030	20.3
N#Cc1nn(-c2cc(Cl)c(Oc3ccc(=O)n(-c4cccc(C5CC5)c4)c3)c(Cl)c2)c(=O)[nH]c1=O [Example 31, 2-(3,5-dichloro-4-((1-(3-cyclopropylphenyl)-6-oxo-1,6-dihydropyridin-3-yl)oxy)phenyl)-3,5-dioxo-2,3,4,5-tetrahydro-1,2,4-triazine-6-carbonitrile]	81	–	–
Cc1cc(Oc2c(Cl)cc(-n3nc(C#N)c(=O)[nH]c3=O)cc2Cl)cn(C2CC2)c1=O [Example 18, 2-(3,5-Dichloro-4-((1-cyclopropyl-5-methyl-6-oxo-1,6-dihydropyridin-3-yl)oxy)phenyl) -3,5-dioxo-2,3,4,5-tetrahydro-1,2,4-triazine-6-carbonitrile]	1430	–	–
O=c1[nH]c(=O)n(-c2cc(Cl)c(Oc3ccc(=O)n(-c4ccc(F)cc4)c3)c(Cl)c2)nc1CF [Example 37, 2-(3,5-dichloro-4-((1-(4-fluorophenyl)-6-oxo-1,6-dihydropyridin-3-yl)oxy)phenyl)-6-(fluoromethyl)-1,2,4-triazine-3,5(2H, 4H)-dione]	92	9260	100.6
N#Cc1nn(-c2cc(Cl)c(Oc3ccc(=O)n(-c4cccs4)c3)c(Cl)c2)c(=O)[nH]c1=O [Example 33, 2-(3,5-Dichloro-4-((6-oxo-1-(thien-2-yl)-1,6-dihydropyridin-3-yl)oxy)phenyl)-3,5-diox o-2,3,4,5-tetrahydro-1,2,4-triazine-6-carbonitrile]	119	–	–
N#Cc1cccc(-n2cc(Oc3c(Cl)cc(-n4nc(C#N)c(=O)[nH]c4=O)cc3Cl)ccc2=O)c1 [Example 28, 2-(3,5-Dichloro-4-((1-(3-cyanophenyl)-6-oxo-1,6-dihydropyridin-3-yl)oxy)phenyl)-3,5- -dioxo-1,2,3,4-4,5-tetrahydro-1,2,4-triazine-6-carbonitrile]	23	1140	49.5
Cc1cccc(-n2cc(Oc3c(Cl)cc(-n4nc(C#N)c(=O)[nH]c4=O)cc3Cl)ccc2=O)c1 [Example 26, 2-(3,5-Dichloro-4-((6-oxo-1-(3-methylphenyl)-1,6-dihydropyridin-3-yl)oxy)phenyl)-3,5-dioxo-2,3,4,5-tetrahydro-1,2,4-triazine-6-carbonitrile]	60	–	–
CCC(CC)n1cc(Oc2c(Cl)cc(-n3nc(C#N)c(=O)[nH]c3=O)cc2Cl)ccc1=O [Example 7, 2-(3,5-dichloro-4-((6-oxo-1-(pentan-3-yl)-1,6-dihydropyridin-3-yl)oxy)phenyl)-3,5-dioxo-2,3,4,5-tetrahydro-1,2,4-triazine-6-carbonitrile]	40	–	–
COCCn1cc(Oc2c(Cl)cc(-n3nc(CF)c(=O)[nH]c3=O)cc2Cl)ccc1=O [Example 45, 2-(3,5-Dichloro-4-((1-(2-methoxyethyl)-6-oxo-1,6-dihydropyridin-3-yl)oxy)phenyl)-6-(fluoromethyl)-1,2,4-triazine-3,5(2H, 4H)-dione]	32	–	–
N#Cc1nn(-c2cc(Cl)c(Oc3ccc(=O)n(-c4cc(F)cc(F)c4)c3)c(Cl)c2)c(=O)[nH]c1=O [Example 29, 2-(3,5-Dichloro-4-((1-(3,5-difluorophenyl)-6-oxo-1,6-dihydropyridin-3-yl)oxy)phenyl) -3,5-dioxo-2,3,4,5-tetrahydro-1,2,4-triazine-6-carbonitrile]	297	–	–
N#Cc1nn(-c2cc(Cl)c(Oc3ccc(=O)n(-c4ccsc4)c3)c(Cl)c2)c(=O)[nH]c1=O [Example 32, 2-(3,5-Dichloro-4-((6-oxo-1-(thiophen-3-yl)-1,6-dihydropyridin-3-yl)oxy)phenyl)-3,5-dioxo-2,3,4,5-tetrahydro-1,2,4-triazine-6-carbonitrile]	100	–	–
CC(C)n1cc(Oc2c(Cl)cc(-n3nc(CF)c(=O)[nH]c3=O)cc2Cl)ccc1=O [Example 44, 2-(3,5-Dichloro-4-((1-isopropyl-6-oxo-1,6-dihydropyridin-3-yl)oxy)phenyl)-6-(fluoromethyl)-1,2,4-triazine-3,5(2H, 4H)-dione]	3	–	–
N#Cc1nn(-c2cc(Cl)c(Oc3ccc(=O)n(C4=CCCCC4)c3)c(Cl)c2)c(=O)[nH]c1=O [Example 13, 2-(3,5-Dichloro-4-((1-(cyclohex-1-en-1-yl)-6-oxo-1,6-dihydropyridin-3-yl)oxy)phenyl) -3,5-dioxo-2,3,4,5-tetrahydro-1,2,4-triazine-6-carbonitrile]	22	–	–
COCCn1cc(Oc2c(Cl)cc(-n3nc(C#N)c(=O)[nH]c3=O)cc2Cl)ccc1=O [Example 8, 2-(3,5-Dichloro-4-((1-(2-methoxyethyl)-6-oxo-1,6-dihydropyridin-3-yl)oxy)phenyl) -3,5-dioxo-2,3,4,5-tetrahydro-1,2,4-triazine-6-carbonitrile]	431	–	–
Cc1cc(C)cc(-n2cc(Oc3c(Cl)cc(-n4nc(C#N)c(=O)[nH]c4=O)cc3Cl)ccc2=O)c1 [Example 30, 2-(3,5-dichloro-4-((1-(3,5-dimethylphenyl)-6-oxo-1,6-dihydropyridin-3-yl)oxy)phenyl)-3,5-dioxo-2,3,4,5-tetrahydro-1,2,4-triazine-6-carbonitrile]	150	–	–
O=c1[nH]c(=O)n(-c2cc(Cl)c(Oc3ccc(=O)n(-c4cccs4)c3)c(Cl)c2)nc1CF [Example 43, 2-(3,5-Dichloro-4-((6-oxo-1-(thiophen-2-yl)-1,6-dihydropyridin-3-yl)oxy)phenyl)-6-(fluoromethyl)-1,2,4-triazine-3,5(2H, 4H)-dione]	8	–	–
N#Cc1nn(-c2cc(Cl)c(Oc3ccc(=O)n(-c4nccs4)c3)c(Cl)c2)c(=O)[nH]c1=O [Example 34, 2-(3,5-dichloro-4-((6-oxo-1-(thiazol-2-yl)-1,6-dihydropyridin-3-yl)oxy)phenyl)-3,5-dioxo-2,3,4,5-tetrahydro-1,2,4-triazine-6-carbonitrile]	435	–	–
Cc1ccccc1-n1cc(Oc2c(Cl)cc(-n3nc(C#N)c(=O)[nH]c3=O)cc2Cl)ccc1=O [Example 27, 2-(3,5-Dichloro-4-((6-oxo-1-(o-methylphenyl)-1,6-dihydropyridin-3-yl)oxy)phenyl)-3,5-dioxo-1,2,3,4-4,5-tetrahydro-1,2,4-triazine-6-carbonitrile]	136	–	–
N#Cc1nn(-c2cc(Cl)c(Oc3ccc(=O)[nH]c3)c(Cl)c2)c(=O)[nH]c1=O [Example 2, 2-(3,5-Dichloro-4-((6-oxo-1,6-dihydropyridin-3-yl)oxy)phenyl)-3,5-dioxo-2,3,4,5-tetra hydro-1H-1,2,4-triazine-6-carbonitrile]	3650	–	–
CC(C)n1cc(Oc2c(Cl)cc(-n3nc(C#N)c(=O)[nH]c3=O)cc2Cl)cc(C2CC2)c1=O [Example 19, 2-(3,5-Dichloro-4-((5-cyclopropyl-1-isopropyl-6-oxo-1,6-dihydropyridin-3-yl)oxy)phenyl)-3,5-dioxo-2,3,4,5-tetrahydro-1,2,4-triazine-6-carbonitrile]	1340	–	–
